Ten molecules from PubChem BioAssay (NCI) can be followed below.

Test systems include SNB-19 CNS; HT29 colon; HOP-92 NSCLC; UACC-257 melanoma; CCRF-CEM leukemia; M14 melanoma; UACC-62 melanoma; TK-10 renal; SK-MEL-2 melanoma; K-562 leukemia; NCI-H226 lung; SK-MEL-5 melanoma.
Holding throughout (test): DTP human tumour cell line panel, 48 h

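Method: 48-hour compound exposure of cells in 96-well plates, five concentrations, linear interpolation of endpoints. The concentration for 50% growth inhibition is given as GI50. At the TGI there is no net growth.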

By TGI is commonly meant the concentration at which net growth stops. Consider `O=C1c2cccc(O)c2C(=O)c2c(O)cccc21`, for which the TGI in the experiment with SNB-19 CNS, in the experiment with HT29 colon, in the experiment on HOP-92 NSCLC, in the experiment on UACC-257 melanoma, in the experiment with CCRF-CEM leukemia and in the experiment on M14 melanoma was over 100 µM in each case. Besides, the TGI with UACC-62 melanoma is 39.8 µM; with TK-10 renal, over 100 µM; with SK-MEL-2 melanoma it was over 100 µM; in the experiment on K-562 leukemia it was over 100 µM; with NCI-H226 lung it was over 100 µM.

Take `C[n+]1c2ccccc2c(CNCC(=O)O)c2ccccc21`: the TGI with SNB-19 CNS was 22.2 µM; with HT29 colon it was 12.1 µM; in the experiment on HOP-92 NSCLC, 10.4 µM; in the experiment on SK-MEL-5 melanoma, 14.4 µM; with UACC-257 melanoma it was 23.8 µM; in the experiment on M14 melanoma, 18.4 µM. Further, the TGI with UACC-62 melanoma was determined as 3.83 µM; in the experiment with TK-10 renal, 3.06 µM; with SK-MEL-2 melanoma it was 12.6 µM; in the experiment on K-562 leukemia, 11.1 µM; in the experiment on NCI-H226 lung, 15.5 µM.

As for `CC(=O)OCC1OC(NC(=O)N(CCCl)N=O)C(OC(C)=O)C(OC(C)=O)C1OC(C)=O` (configuration not stated), the TGI in the experiment with SNB-19 CNS was over 100 µM; in the experiment on HT29 colon it was over 100 µM; in the experiment on HOP-92 NSCLC, over 100 µM; in the experiment on SK-MEL-5 melanoma it was over 31.6 µM; in the experiment on UACC-257 melanoma, over 100 µM; with CCRF-CEM leukemia, over 100 µM. Further, the total growth inhibition concentration (TGI) with UACC-62 melanoma, in the experiment on SK-MEL-2 melanoma and with K-562 leukemia was over 100 µM in each case.

For `NC(=O)c1ccc([N+](=O)[O-])cc1`, the TGI in the experiment on SNB-19 CNS, in the experiment with HT29 colon, in the experiment with SK-MEL-5 melanoma, with UACC-257 melanoma, in the experiment with CCRF-CEM leukemia and in the experiment on M14 melanoma was over 100 µM throughout. Moreover, the TGI with UACC-62 melanoma, with TK-10 renal, in the experiment on SK-MEL-2 melanoma, in the experiment on K-562 leukemia and in the experiment on NCI-H226 lung was over 100 µM in each case.

Consider `C=CCNC1=C2C[C@@H](C)C[C@H](OC)[C@H](O)[C@@H](C)/C=C(\C)[C@H](OC(N)=O)[C@@H](OC)/C=C\C=C(/C)C(=O)NC(=CC1=O)C2=O`, for which the TGI was found to be 62.2 µM in the experiment on SNB-19 CNS; 12.1 µM in the experiment on HT29 colon; 15.9 µM with HOP-92 NSCLC; 16.5 µM with SK-MEL-5 melanoma; 21.3 µM in the experiment on UACC-257 melanoma; 10.6 µM in the experiment with CCRF-CEM leukemia. For the same molecule, the concentration for total growth inhibition (TGI) with M14 melanoma was found to be 17 µM; with UACC-62 melanoma, 4.8 µM; in the experiment on TK-10 renal it was 48.3 µM; in the experiment with SK-MEL-2 melanoma, 19.1 µM; with K-562 leukemia, 29.7 µM; in the experiment on NCI-H226 lung it was 28.9 µM.

With `COc1ccc2c(c1)C(OC)C1c3c(cc4c(c3-2)OCO4)CCN1C` (configuration not stated), the TGI in the experiment with SNB-19 CNS was determined as 19.3 µM; in the experiment on HT29 colon, 14.1 µM; in the experiment on HOP-92 NSCLC it was 11.8 µM; in the experiment on SK-MEL-5 melanoma it was 5.17 µM; in the experiment with UACC-257 melanoma, 13 µM; in the experiment with M14 melanoma it was 7.84 µM. In addition, the TGI was 5.08 µM in the experiment with UACC-62 melanoma; over 63.8 µM with TK-10 renal; 7.9 µM with SK-MEL-2 melanoma; over 57.3 µM with K-562 leukemia; 9.09 µM with NCI-H226 lung.

What is called GI50 is the concentration that inhibits growth by half. `N=C(N)c1ccc(-c2ccc(-c3ccc4ccccc4c3)s2)s1`: the GI50 with SK-MEL-5 melanoma is 14.7 µM; in the experiment with UACC-257 melanoma, 16.1 µM; in the experiment with M14 melanoma, 2450 nM; with UACC-62 melanoma, 2100 nM; in the experiment on TK-10 renal it was 2230 nM; in the experiment with SK-MEL-2 melanoma, 2520 nM. For the same molecule, the GI50 with NCI-H226 lung was 33.6 µM. The TGI turned out to be 28 µM in the experiment on SK-MEL-5 melanoma; 31.2 µM with UACC-257 melanoma; 5.72 µM in the experiment with M14 melanoma; 4.37 µM in the experiment on UACC-62 melanoma; 4.77 µM in the experiment on TK-10 renal; 5.7 µM in the experiment with SK-MEL-2 melanoma. Besides, the TGI with NCI-H226 lung was determined as 79.2 µM.

In the case of `CCn1c(=O)c(C(=O)O)c(Cl)c2cc3c(cc21)OCO3`, the TGI in the experiment on SNB-19 CNS, in the experiment with HT29 colon, in the experiment on HOP-92 NSCLC, in the experiment on SK-MEL-5 melanoma, with UACC-257 melanoma and with CCRF-CEM leukemia was over 100 µM in each case. Moreover, the TGI in the experiment with UACC-62 melanoma, in the experiment on SK-MEL-2 melanoma, in the experiment on K-562 leukemia and with NCI-H226 lung was over 100 µM throughout.

Turning to `C[P+](c1ccccc1)(c1ccc(Cl)cc1)c1ccc(Cl)cc1`, the TGI with SNB-19 CNS worked out at 59.1 µM; in the experiment on HT29 colon, 24.1 µM; in the experiment on HOP-92 NSCLC it was 40.3 µM; with SK-MEL-5 melanoma, 14.4 µM; in the experiment with UACC-257 melanoma, 32.6 µM; in the experiment with M14 melanoma, 34.4 µM. Moreover, the TGI worked out at 28.3 µM in the experiment with UACC-62 melanoma; 36.9 µM with TK-10 renal; 46.3 µM with SK-MEL-2 melanoma; 74.4 µM in the experiment on K-562 leukemia; 88.6 µM in the experiment on NCI-H226 lung.

For the molecule `COc1ccc(N2C(=O)/C(=C\c3ccccc3)SC2c2cc(OC)c(OC)c(OC)c2)cc1` (configuration not stated), the TGI in the experiment on SNB-19 CNS, in the experiment on HT29 colon, in the experiment on HOP-92 NSCLC, in the experiment on SK-MEL-5 melanoma, with UACC-257 melanoma and in the experiment with CCRF-CEM leukemia was over 100 µM each time. For the same molecule, the TGI in the experiment with M14 melanoma was over 100 µM; with UACC-62 melanoma it was over 100 µM; with TK-10 renal, over 100 µM; in the experiment on SK-MEL-2 melanoma, 75.9 µM; with K-562 leukemia it was over 100 µM; in the experiment on NCI-H226 lung it was over 100 µM.
